These results are taken from US6472418B1, “Non-peptide NK1 receptors antagonists” (Warner-Lambert Company, priority 1998, dated 2002).

The target of this experiment is T1, Human NK1 Receptor (Homo sapiens, UniProt P25103).
T1 construct: endogenous in cells; host or cells: Human lymphoma IM9 cells (whole cells)
T1 sequence (P25103 whole entry): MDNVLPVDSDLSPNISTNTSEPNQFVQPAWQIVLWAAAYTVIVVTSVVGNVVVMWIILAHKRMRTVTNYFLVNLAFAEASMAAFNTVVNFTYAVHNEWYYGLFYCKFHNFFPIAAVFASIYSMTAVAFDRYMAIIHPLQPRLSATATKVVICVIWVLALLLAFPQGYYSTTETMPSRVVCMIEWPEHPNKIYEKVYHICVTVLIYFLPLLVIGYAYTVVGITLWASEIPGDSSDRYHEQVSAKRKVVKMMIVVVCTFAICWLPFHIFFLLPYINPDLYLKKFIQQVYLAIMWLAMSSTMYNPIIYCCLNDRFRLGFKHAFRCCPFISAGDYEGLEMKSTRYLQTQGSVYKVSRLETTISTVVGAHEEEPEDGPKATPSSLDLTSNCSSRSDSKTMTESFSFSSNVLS
Put plainly: In Vitro Human NK1 Receptor Binding Assay ([125I]Bolton-Hunter substance P displacement, IM9 cells). To be noted: human NK1 receptor, IM9 cells, [125I]Bolton-Hunter substance P; read-out: IC50 (nM) hNK1. The procedure, abridged: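 Radioligand displacement on whole IM9 human lymphoma cells (2.5×10^6 cells/mL) using [125I]Bolton-Hunter substance P (0.05-0.1 nM), 50 min at 21° C in Tris pH 7.4/MnCl2 buffer with protease inhibitors. Non-specific binding defined by […] [Sar9, Met(O2)11] substance P. Filtration, gamma counting, iterative curve fitting.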
For `CC(Cc1c[nH]c2ccccc12)(NCc1cc2ccccc2o1)C(=O)NCC(C)(C)N1CCCCC1` (stereo not shown) [compound 131, 2-[(Benzofuran-2-ylmethyl)-amino]-3-(1H-indol-3-yl)-2-methyl-N-(2-methyl-2-piperidin-1-yl-propyl)-propionamide], the IC50 was greater than 10000 nM.

`CC(Cc1c[nH]c2ccccc12)(NCc1cc2ccccc2o1)C(=O)NCCN1CCNC1=S` (stereo not shown) [compound 132, 2-[(Benzofuran-2-ylmethyl)-amino]-3-(1H-indol-3-yl)-2-methyl-N-[2-(2-thioxo-imidazolidin-1-yl)-ethyl]-propionamide]: the IC50 is 6030 nM.

On to `CC(Cc1c[nH]c2ccccc12)(NCc1cc2ccccc2o1)C(=O)NCC(C)(C)c1ccccc1` (stereo not shown) [compound 133, 2-[(Benzofuran-2-ylmethyl)-amino]-3-(1H-indol-3-yl)-2-methyl-N-(2-methyl-2-phenyl-propyl)-propionamide], for which the IC50 was 4480 nM.

Turning to `CC(Cc1c[nH]c2ccccc12)(NCc1cc2ccccc2o1)C(=O)NCCCn1ccnc1` (stereo not shown) [compound 134, 2-[(Benzofuran-2-ylmethyl)-amino]-N-(3-imidazol-1-yl-propyl)-3-(1H-indol-3-yl)-2-methyl-propionamide], the IC50 stood at 5370 nM.

For `CC(Cc1c[nH]c2ccccc12)(NCc1cc2ccccc2o1)C(=O)NCC1CCCO1` (stereo not shown) [compound 135, 2-[(Benzofuran-2-ylmethyl)-amino]-3-(1H-indol-3-yl)-2-methyl-N-(tetrahydro-furan-2-ylmethyl)-propionamide], the IC50 came to 1200 nM.

Turning to `CC1(CNC(=O)C(C)(Cc2c[nH]c3ccccc23)NCc2cc3ccccc3o2)CCCO1` (stereo not shown) [compound 136, 2-[(Benzofuran-2-ylmethyl)-amino]-3-(1H-indol-3-yl)-2-methyl-N-(2-methyl-tetrahydro-furan-2-ylmethyl)-propionamide], the IC50 was greater than 10000 nM.

As for `CC(Cc1c[nH]c2ccccc12)(NCc1cc2ccccc2o1)C(=O)NCc1cccs1` (stereo not shown) [compound 137, 2-[(Benzofuran-2-ylmethyl)-amino]-3-(1H-indol-3-yl)-2-methyl-N-thiophen-2-ylmethyl-propionamide], the IC50 is 100 nM.

`CC(Cc1c[nH]c2ccccc12)(NCc1cc2ccccc2o1)C(=O)NCC1CCCO1` (stereo not shown) [compound 138, 2-[(Benzofuran-2-ylmethyl)-amino]-3-(1H-indol-3-yl)-2-methyl-N-(tetrahydro-furan-2-ylmethyl)-propionamide]: the concentration for half-maximal inhibition (IC50) came to 4870 nM.

In the case of `CC(Cc1c[nH]c2ccccc12)(NCc1cc2ccccc2o1)C(=O)NCc1cc(F)ccc1F` (stereo not shown) [compound 139, 2-[(Benzofuran-2-ylmethyl)-amino]-N-(2,5-difluoro-benzyl)-3-(1H-indol-3-yl)-2-methyl-propionamide], the IC50 is 99 nM.

For the molecule `CC(CNC(=O)C(C)(Cc1c[nH]c2ccccc12)NCc1cc2ccccc2o1)c1ccccc1` (stereo not shown) [compound 140, 2-[(Benzofuran-2-ylmethyl)-amino]-3-(1H-indol-3-yl)-2-methyl-N-(2-phenyl-propyl)-propionamide], the IC50 is greater than 10000 nM.

Regarding `CC(Cc1c[nH]c2ccccc12)(NCc1cc2ccccc2o1)C(=O)NCc1ccc(N)c2ccccc12` (stereo not shown) [compound 141, N-(4-Amino-naphthalen-1-ylmethyl)-2-[(benzofuran-2-ylmethyl)-amino]-3-(1H-indol-3-yl)-2-methyl-propionamide], the IC50 stood at 2340 nM.

Take `COc1cccc(CNC(=O)C(C)(Cc2c[nH]c3ccccc23)NCc2cc3ccccc3o2)c1OC` (stereo not shown) [compound 142, 2-[(Benzofuran-2-ylmethyl)-amino]-N-(2,3-dimethoxy-benzyl)-3-(1H-indol-3-yl)-2-methyl-propionamide]: the IC50 is 1960 nM.

As for `CC(Cc1c[nH]c2ccccc12)(NCc1cc2ccccc2o1)C(=O)NCCc1ccc(O)cc1` (stereo not shown) [compound 143, 2-[(Benzofuran-2-ylmethyl)-amino]-N-[2-(4-hydroxy-phenyl)-ethyl]-3-(1H-indol-3-yl)-2-methyl-propionamide], the IC50 was greater than 10000 nM.

The term IC50 denotes the concentration that gives 50% inhibition.
